# Test results from US20230135152A1 (ACURASTEM INCORPORATED, priority 2020, published 2023).
# Tests used:
# PIKFYVE [1] = molecular target: T1, PIKFYVE (Homo sapiens, UniProt Q9Y2I7); experiment: Cell-based Pikfyve inhibition activity assay (EEA1 staining, mean vesicle size in BJ fibroblast cells); details: Table 4, 4 hours treatment, 3 μM Apilimod = 100% inhibition
# Procedure: BJ fibroblast cells were obtained from American Type Cell Culture (ATCC, CRL-2522). The cells were maintained in DMEM (Genesee Scientific, 25-500) supplemented with 10% fetal bovine serum (Genesee Scientific, 25-514) and 1% penicillin-streptomycin (Genesee Scientific, 25-512) at 37° C. in the atmosphere 5% CO2. BJ fibroblasts were plated into black flat clear bottom 96-well plates (Grenier, 655090) at a density of 3×10^3 per well and were allowed to attach in culture for 8-10 hours before drug treatment. Drugs were tested at eleven doses separated by 3 fold from 0.03 nM to 3000 nM in triplicates for 4 hours at 37° C. After 4 hours, treatment media was aspirated and replaced with 4% Paraformaldehyde (Electron Microscopy Science, 15714-S) and cells were fixed at room temperature for 5 minutes. 4% PFA in wells were then discarded and replaced with a blocking buffer consisting of 1×PBS with 0.1% Tween (Sigma-Aldrich, P1754-500), 5% Donkey Serum (Jackson ImmunoResearch, 017-000-121), and 1% BSA (Caisson Labs, B005-50GM) and incubated at room temperature for 30 minutes. Blocking buffer was then discarded and replaced with a primary EEA1 antibody (Fisher Scientific, BD610457) in a 1:1000 dilution and incubated at 4° C. overnight. Following overnight incubation, plates were washed with 1×PBS three times and incubated with secondary antibody Donkey anti-Mouse IgG, Alexa Fluor 555 (Invitrogen, A31570) (1:1000 dilution) for 1 hour at room temperature in the dark. Subsequently cell plates were washed with 1×PBS three times and can be stored at 4° C. if not being proceeding with imaging procedure.
# Images were acquired with 20× objective (ImageXpress MicroConfocal, Molecular Devices) creating z-series of 5 planes (5 steps, […]), 16 tiles per well. Images were then analyzed using a custom CellProfiler protocol to obtain mean vesicle size. The mean vesicle size from 16 images was used as the output for each well. The mean vesicle size from 0.5% DMSO treated condition was considered as having no Pikfyve inhibition activity and the 3 μM Apilimod treated condition was considered as having 100% inhibition activity. The mean vesicle size was converted to % inhibition activity and the data was fitted to a dose-response curve using log(inhibitor) vs normalized response-variable slope using GraphPad Prism.
# PIKFYVE [2] = molecular target: T1, PIKFYVE; experiment: PIKFYVE assay (luciferase ADP-Glo kinase assay, Promega); assay type: biochemical
# Method in brief: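 Kinase activity measured with a luciferase-based ADP-Glo read-out, which quantifies ADP formed by the enzyme.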
# T1 sequence (Q9Y2I7 whole entry): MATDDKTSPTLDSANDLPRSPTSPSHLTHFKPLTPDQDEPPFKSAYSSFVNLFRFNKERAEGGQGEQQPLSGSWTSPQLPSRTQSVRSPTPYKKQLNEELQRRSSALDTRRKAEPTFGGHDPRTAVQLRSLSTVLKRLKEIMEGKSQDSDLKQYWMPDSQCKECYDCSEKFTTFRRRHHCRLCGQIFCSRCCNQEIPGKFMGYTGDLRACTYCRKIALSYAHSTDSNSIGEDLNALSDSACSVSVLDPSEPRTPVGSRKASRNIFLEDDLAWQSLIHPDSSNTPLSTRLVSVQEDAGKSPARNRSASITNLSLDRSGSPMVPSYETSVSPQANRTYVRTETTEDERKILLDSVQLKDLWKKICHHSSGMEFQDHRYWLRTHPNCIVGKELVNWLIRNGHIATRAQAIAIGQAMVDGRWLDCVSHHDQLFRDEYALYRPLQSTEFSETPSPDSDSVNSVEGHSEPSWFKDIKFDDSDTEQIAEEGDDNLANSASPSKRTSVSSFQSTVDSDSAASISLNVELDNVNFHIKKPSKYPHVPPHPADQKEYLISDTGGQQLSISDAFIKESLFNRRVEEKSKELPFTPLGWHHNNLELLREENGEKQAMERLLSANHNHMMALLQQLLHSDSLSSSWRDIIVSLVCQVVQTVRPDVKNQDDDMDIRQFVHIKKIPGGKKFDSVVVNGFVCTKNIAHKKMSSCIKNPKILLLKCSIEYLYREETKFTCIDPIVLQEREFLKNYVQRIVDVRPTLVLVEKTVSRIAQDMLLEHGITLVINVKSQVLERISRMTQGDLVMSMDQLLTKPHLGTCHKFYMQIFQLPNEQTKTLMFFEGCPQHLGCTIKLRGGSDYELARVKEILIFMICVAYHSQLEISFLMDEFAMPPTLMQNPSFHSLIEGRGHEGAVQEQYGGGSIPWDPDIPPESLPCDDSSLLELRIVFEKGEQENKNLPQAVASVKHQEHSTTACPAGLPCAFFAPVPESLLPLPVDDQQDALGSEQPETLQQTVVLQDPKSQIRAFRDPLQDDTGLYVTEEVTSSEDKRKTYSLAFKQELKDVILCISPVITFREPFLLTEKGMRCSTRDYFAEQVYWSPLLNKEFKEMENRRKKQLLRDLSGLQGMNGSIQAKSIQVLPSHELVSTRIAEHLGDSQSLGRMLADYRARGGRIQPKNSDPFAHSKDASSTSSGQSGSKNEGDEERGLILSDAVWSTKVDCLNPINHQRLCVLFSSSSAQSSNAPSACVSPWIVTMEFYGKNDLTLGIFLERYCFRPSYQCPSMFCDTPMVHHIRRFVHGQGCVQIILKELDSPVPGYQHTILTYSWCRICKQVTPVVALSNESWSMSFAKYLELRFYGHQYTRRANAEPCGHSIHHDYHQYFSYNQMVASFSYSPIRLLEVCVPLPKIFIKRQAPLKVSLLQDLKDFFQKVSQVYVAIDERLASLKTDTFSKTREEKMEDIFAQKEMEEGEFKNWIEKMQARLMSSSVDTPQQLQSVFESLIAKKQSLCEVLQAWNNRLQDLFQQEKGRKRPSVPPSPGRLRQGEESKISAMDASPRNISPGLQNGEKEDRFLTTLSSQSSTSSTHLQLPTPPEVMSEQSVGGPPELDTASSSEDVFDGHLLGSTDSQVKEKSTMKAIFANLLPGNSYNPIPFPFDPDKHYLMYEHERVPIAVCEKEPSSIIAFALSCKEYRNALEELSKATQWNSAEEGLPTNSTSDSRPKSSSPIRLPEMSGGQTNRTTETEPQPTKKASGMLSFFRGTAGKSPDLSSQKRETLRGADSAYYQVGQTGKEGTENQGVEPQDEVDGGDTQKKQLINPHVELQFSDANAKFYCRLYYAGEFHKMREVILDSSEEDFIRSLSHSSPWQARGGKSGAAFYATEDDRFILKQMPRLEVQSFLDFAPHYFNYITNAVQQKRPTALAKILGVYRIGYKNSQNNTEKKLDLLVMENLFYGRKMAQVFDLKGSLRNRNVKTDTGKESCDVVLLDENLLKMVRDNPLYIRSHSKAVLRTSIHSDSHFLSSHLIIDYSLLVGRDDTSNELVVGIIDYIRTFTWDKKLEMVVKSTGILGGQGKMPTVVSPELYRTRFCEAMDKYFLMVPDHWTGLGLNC
Compound,EC50 (PIKFYVE [1]),IC50 (PIKFYVE [2]; Table 3),IC50 (PIKFYVE [2]; Table 2)
"CO[C@H](CO)c1nc(N2CCOCC2)cc(-n2nc(-c3cccc(C)c3)cc2C)n1 [Compound 225, (S)-2-methoxy-2-(4-(5-methyl-3-(m-tolyl)-1H-pyrazol-1-yl)-6-morpholinopyrimidin-2-yl)ethan-1-ol]",100 to 500 nM,3 to 10 nM,
"COC(CO)(c1ccccc1)c1nc(N2CCOCC2)cc(-n2ccc(-c3cccc(C)c3)n2)n1 (centres unmarked) [Compound 229, 2-methoxy-2-(4-morpholino-6-(3-(m-tolyl)-1H-pyrazol-1-yl)pyrimidin-2-yl)-2-phenylethan-1-ol]",100 to 500 nM,3 to 10 nM,
"N#CCC(O)c1nc(N2CCOCC2)cc(-n2ccc(-c3ccccc3)n2)n1 (centres unmarked) [Compound 181, 3-hydroxy-3-(4-morpholino-6-(3-phenyl-1H-pyrazol-1-yl)pyrimidin-2-yl)propanenitrile]",500 to 5000 nM,10 to 100 nM,
"COc1cc(N2CCOCC2)nc(-n2ccc(-c3cccc(C)c3)n2)n1 [Compound 87, 4-(6-methoxy-2-(3-(m-tolyl)-1H-pyrazol-1-yl)pyrimidin-4-yl)morpholine]",100 to 500 nM,,101 to 1000 nM
"COC(Cc1ccnn1C)c1nc(N2CCOCC2)cc(-n2ccc(-c3ccccc3)n2)n1 (centres unmarked) [Compound 68, 4-(2-(1-methoxy-2-(1-methyl-1H-pyrazol-5-yl)ethyl)-6-(3-phenyl-1H-pyrazol-1-yl)pyrimidin-4-yl)morpholine]",100 to 500 nM,,< 5 nM
"CO[C@H](CO)c1nc(N2CCOCC2)cc(-n2nc(-c3ccccc3)cc2C)n1 (single isomer, unassigned) [Compound 205]",500 to 5000 nM,10 to 100 nM,
"COc1cccc(-c2ccn(-c3cc(N4CCOCC4)nc(N)n3)n2)c1 [Compound 44, 4-(3-(3-methoxyphenyl)-1H-pyrazol-1-yl)-6-morpholino-pyrimidin-2-amine]",100 to 500 nM,,< 5 nM
"Cc1cccc(-c2ccn(-c3cc(N4CCOCC4)c4[nH]c(C)cc4n3)n2)c1 [Compound 334, 4-(2-methyl-5-(3-(m-tolyl)-1H-pyrazol-1-yl)-1H-pyrrolo[3,2-b]pyridin-7-yl)morpholine]",500 to 5000 nM,10 to 100 nM,
"Cc1cccc(-c2ccn(-c3cc(N4CCOCC4)nc([C@H]4C[C@H](O)CO4)n3)n2)c1 [Compound 332, (3S,5R)-5-(4-morpholino-6-(3-(m-tolyl)-1H-pyrazol-1-yl)pyrimidin-2-yl)tetrahydrofuran-3-ol]",500 to 5000 nM,3 to 10 nM,
"CO[C@@H](CO)c1nc(N2CCO[C@H](C)C2)cc(-n2ccc(-c3cccc(C)c3)n2)n1 (single isomer, unassigned) [Compound 308]",500 to 5000 nM,10 to 100 nM,
COCc1nc(N2CCOCC2)cc(-n2ccc(-c3ccccc3)n2)n1 [Compound 69],500 to 5000 nM,,5 to 100 nM
"CO[C@@H](CO)c1nc(N2CCOCC2)cc(-n2nc(-c3c[nH]c4ccccc34)cc2C)n1 (single isomer, unassigned) [Compound 261]",< 20 nM,< 3 nM,
"Cc1cccc(-c2ccn(-c3cc(N4CCOCC4)nc(OCC(c4ccccc4)N(C)C)n3)n2)c1 (centres unmarked) [Compound 111, N,N-dimethyl-2-((4-morpholino-6-(3-(m-tolyl)-1H-pyrazol-1-yl)pyrimidin-2-yl)oxy)-1-phenylethan-1-amine]",> 5000 nM,3 to 10 nM,
"COc1nc(N2CCOCC2)cc(-n2nc(-c3cccc(C)c3)cc2CN2CCOCC2)n1 [Compound 236, 4-(2-methoxy-6-(5-(morpholinomethyl)-3-(m-tolyl)-1H-pyrazol-1-yl)pyrimidin-4-yl)morpholine]",> 5000 nM,< 3 nM,

# Results, then the compound that gave them:
EC50 (PIKFYVE [1]),IC50 (PIKFYVE [2]; Table 3),IC50 (PIKFYVE [2]; Table 2),Compound
20 to 100 nM,< 3 nM,,"Cn1cc(CCOc2nc(N3CCOCC3)cc(-n3nc(-c4ccccc4)cc3CO)n2)cn1 [Compound 233, (1-(2-(2-(1-methyl-1H-pyrazol-4-yl)ethoxy)-6-morpholinopyrimidin-4-yl)-3-phenyl-1H-pyrazol-5-yl)methanol]"
20 to 100 nM,,< 5 nM,"Cc1cccc(-c2ccn(-c3cc(N4CCOCC4)nc(OCc4cccnn4)n3)n2)c1 [Compound 54, 4-(2-(pyridazin-3-ylmethoxy)-6-(3-(m-tolyl)-1H-pyrazol-1-yl)pyrimidin-4-yl)morpholine]"
100 to 500 nM,3 to 10 nM,,"Cc1cccc(-c2ccn(-c3cc(N4CCOCC4)nc(OCCc4cnn(C)c4)n3)n2)n1 [Compound 190, 4-(2-(2-(1-methyl-1H-pyrazol-4-yl)ethoxy)-6-(3-(6-methylpyridin-2-yl)-1H-pyrazol-1-yl)pyrimidin-4-yl)morpholine]"
20 to 100 nM,,< 5 nM,Cc1cccc(-c2ccn(-c3cc(N4CCOCC4)nc(CCc4ncccn4)n3)n2)c1 [Compound 43]
< 20 nM,< 3 nM,,"Cc1cccc(-c2cc(CO)n(-c3cc(N4CCOCC4)nc(OCCc4cnn(C)c4)n3)n2)c1 [Compound 234, (1-(2-(2-(1-methyl-1H-pyrazol-4-yl)ethoxy)-6-morpholinopyrimidin-4-yl)-3-(m-tolyl)-1H-pyrazol-5-yl)methanol]"
100 to 500 nM,3 to 10 nM,,"Cc1ccc(C)c(-c2ccn(-c3cc(N4CCOCC4)nc(OCCc4cnn(C)c4)n3)n2)c1 [Compound 197, 4-(6-(3-(2,5-dimethylphenyl)-1H-pyrazol-1-yl)-2-(2-(1-methyl-1H-pyrazol-4-yl)ethoxy)pyrimidin-4-yl)morpholine]"
100 to 500 nM,3 to 10 nM,,"Cc1cccc(-c2ccn(-c3cc(N4CCOCC4)nc(OCCN(C)c4ccccc4)n3)n2)c1 [Compound 100, N-methyl-N-(2-((4-morpholino-6-(3-(m-tolyl)-1H-pyrazol-1-yl)pyrimidin-2-yl)oxy)ethyl)aniline]"
20 to 100 nM,< 3 nM,,"Cc1cccc(-c2cc(C)n(-c3cc(N4CCOCC4)nc(OCCc4cnn(C)c4)n3)n2)c1 [Compound 219, 4-(2-(2-(1-methyl-1H-pyrazol-4-yl)ethoxy)-6-(5-methyl-3-(m-tolyl)-1H-pyrazol-1-yl)pyrimidin-4-yl)morpholine]"
100 to 500 nM,10 to 100 nM,,"Cn1cc(CCOc2nc(N3CCOCC3)cc(-n3ccc(-c4cccc(C#N)c4)n3)n2)cn1 [Compound 126, 3-(1-(2-(2-(1-methyl-1H-pyrazol-4-yl)ethoxy)-6-morpholino-pyrimidin-4-yl)-1H-pyrazol-3-yl)benzonitrile]"
100 to 500 nM,10 to 100 nM,,"Cc1cccc(-c2ccn(-c3cc(N4CCOCC4)nc(OCCNc4ccccc4)n3)n2)c1 [Compound 99, N-(2-((4-morpholino-6-(3-(m-tolyl)-1H-pyrazol-1-yl)pyrimidin-2-yl)oxy)ethyl)aniline]"
> 5000 nM,100 to 5000 nM,,"Cn1cc(CCOc2nc(N3CCOCC3)cc(-n3ccc(Oc4ccncc4)n3)n2)cn1 [Compound 303, 4-(2-(2-(1-methyl-1H-pyrazol-4-yl)ethoxy)-6-(3-(pyridin-4-yloxy)-1H-pyrazol-1-yl)pyrimidin-4-yl)morpholine]"
100 to 500 nM,,< 5 nM,"Cc1cccc(-c2ccn(-c3cc(N4CCOCC4)nc(C)n3)n2)c1 [Compound 81, 4-(2-methyl-6-(3-(m-tolyl)-1H-pyrazol-1-yl)pyrimidin-4-yl)morpholine]"
20 to 100 nM,< 3 nM,,"CCc1cc(-c2ccccc2)nn1-c1cc(N2CCOCC2)nc(OCCc2cnn(C)c2)n1 [Compound 218, 4-(6-(5-ethyl-3-phenyl-1H-pyrazol-1-yl)-2-(2-(1-methyl-1H-pyrazol-4-yl)ethoxy)pyrimidin-4-yl)morpholine]"
100 to 500 nM,3 to 10 nM,,"Cn1cc(CCOc2nc(N3CCOCC3)cc(-n3ccc(-c4ccccn4)n3)n2)cn1 [Compound 194, 4-(2-(2-(1-methyl-1H-pyrazol-4-yl)ethoxy)-6-(3-(pyridin-2-yl)-1H-pyrazol-1-yl)pyrimidin-4-yl)morpholine]"
< 20 nM,3 to 10 nM,,"Cc1cccc(-c2ccn(-c3cc(N4CCOCC4)nc(OCCc4sc(C)nc4C)n3)n2)c1 [Compound 98, 4-(2-(2-(2,4-dimethylthiazol-5-yl)ethoxy)-6-(3-(m-tolyl)-1H-pyrazol-1-yl)pyrimidin-4-yl)morpholine]"
500 to 5000 nM,10 to 100 nM,,"Cn1cc(CCOc2nc(Oc3cc(-c4ccccc4)[nH]n3)cc(N3CCOCC3)n2)cn1 [Compound 215, 4-(2-(2-(1-methyl-1H-pyrazol-4-yl)ethoxy)-6-((5-phenyl-1H-pyrazol-3-yl)oxy)pyrimidin-4-yl)morpholine]"
100 to 500 nM,10 to 100 nM,,"Cn1cc(C(O)c2nc(N3CCOCC3)cc(-n3ccc(-c4ccccc4)n3)n2)cn1 (centres unmarked) [Compound 184, (1-methyl-1H-pyrazol-4-yl)(4-morpholino-6-(3-phenyl-1H-pyrazol-1-yl)pyrimidin-2-yl)methanol]"
